Test results as given in PubChem BioAssay (NCI).
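Following 48 hours of exposure in 96-well plates, responses at five concentrations were used to interpolate endpoints linearly. The concentration for 50% growth inhibition is given as GI50. At the TGI there is no net growth.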

Legend:
Test in all cases: NCI anticancer screen, dose series, 48 h
[1] = system: TK-10 renal
[2] = system: HOP-92 NSCLC
[3] = system: DU-145 prostate
[4] = system: 786-0 renal
[5] = system: HOP-62 NSCLC
[6] = system: SW-620 colon
[7] = system: UACC-257 melanoma
[8] = system: NCI-H23 lung
[9] = system: OVCAR-5 ovarian
[10] = system: MALME-3M melanoma

Row | Structure (SMILES) | GI50 [1] | TGI [1] | GI50 [2] | TGI [2] | GI50 [3] | TGI [3] | GI50 [4] | TGI [4] | GI50 [5] | TGI [5] | GI50 [6] | TGI [6] | GI50 [7] | TGI [7] | GI50 [8] | TGI [8] | GI50 [9] | TGI [9] | GI50 [10] | TGI [10]
1 | COc1ccc(N2CCN(CN3CCN(c4ccc(OC)cc4)C3)C2)cc1 | > 100 µM | > 100 µM | 57.9 µM | > 100 µM | 79.7 µM | > 100 µM | > 100 µM | > 100 µM | 81.5 µM | > 100 µM | 28.2 µM | > 100 µM | > 100 µM | > 100 µM | 48 µM | > 100 µM | > 100 µM | > 100 µM | – | –
2 | C=CCC(N[C@@H](CO)c1ccccc1)c1ccccn1 (some centres not stated) | > 100 µM | > 100 µM | – | – | > 100 µM | > 100 µM | > 100 µM | > 100 µM | > 100 µM | > 100 µM | > 100 µM | > 100 µM | 74.8 µM | > 100 µM | 60.2 µM | > 100 µM | > 100 µM | > 100 µM | > 100 µM | > 100 µM
3 | O=C1NC2(CCCC2)/C(=N\O)C12CCCC2 | – | > 100 µM | – | > 100 µM | – | – | – | > 100 µM | – | > 100 µM | – | > 100 µM | – | > 100 µM | – | > 100 µM | – | > 100 µM | – | > 100 µM
4 | Cc1cc2c(=O)cc(-c3ccc(C(F)(F)F)cc3)oc2c(C(=O)O)c1C | – | > 100 µM | – | – | – | – | – | > 100 µM | – | – | – | > 100 µM | – | > 100 µM | – | > 100 µM | – | > 100 µM | – | > 100 µM
5 | CC(C)(C)CC(C)(C)N(CSc1ccc(Cl)cc1)CSc1ccc(Cl)cc1 | – | – | – | – | 2.25 µM | 11.2 µM | 1.56 µM | 4.01 µM | 0.57 µM | 10.8 µM | 2.02 µM | 4.93 µM | 1.85 µM | 6.18 µM | – | – | 2.19 µM | 6.26 µM | – | –
6 | NC1=NN(c2ccccc2)C(=O)C1/C(=N\NC(=O)c1cc2ccccc2cc1O)C(=O)Nc1nc([N+](=O)[O-])cs1 (configuration not stated) | – | > 100 µM | – | 87.5 µM | – | – | – | > 100 µM | – | > 100 µM | – | > 82.3 µM | – | 64.4 µM | – | 56.3 µM | – | > 100 µM | – | > 100 µM
7 | COc1cc[c]([Sb]([Br])([CH]=C(C)C)([CH]=C(C)C)[CH]=C(C)C)cc1 | 18.8 µM | > 100 µM | – | – | – | – | 13.6 µM | > 100 µM | 29.5 µM | > 100 µM | 6.46 µM | > 100 µM | 3.45 µM | > 100 µM | 4.72 µM | 34.6 µM | – | – | 2.28 µM | > 100 µM
8 | O=C(c1ccccn1)c1nc(-c2ccc(Cl)c(Cl)c2)nc2ccc(Cl)cc12 | – | > 100 µM | – | – | – | – | – | > 100 µM | – | > 100 µM | – | > 100 µM | – | > 100 µM | – | 87.5 µM | – | > 100 µM | – | > 100 µM
9 | N.N.N.N.N.N#N.[Cl-].[Os+7] | > 100 µM | > 100 µM | – | – | – | – | > 100 µM | > 100 µM | – | – | > 100 µM | > 100 µM | – | – | > 100 µM | > 100 µM | > 100 µM | > 100 µM | > 100 µM | > 100 µM
10 | Cc1cc(S(N)(=O)=O)c(S/C(=N\Nc2ccc([N+](=O)[O-])cc2)c2ccc(O)cc2)cc1Cl | 2.01 µM | 5.16 µM | – | – | 5.31 µM | 23.9 µM | 3.8 µM | 13.5 µM | 5.02 µM | 16.8 µM | 3.54 µM | 11.6 µM | 5.22 µM | 19.3 µM | 2.42 µM | 7.54 µM | 2.09 µM | 4.71 µM | 1.73 µM | 4.37 µM
11 | NC(=S)N/N=C1\C(=O)N(CCc2ccccc2)C(=O)C1C(=O)NCCc1ccccc1 (configuration not stated) | – | > 100 µM | – | > 100 µM | – | – | – | > 100 µM | – | > 100 µM | – | > 100 µM | – | > 100 µM | – | > 100 µM | – | > 100 µM | – | > 100 µM
12 | O=C(N[C@@H]1C=CCC[C@@H]1c1ccccc1)OCc1ccccc1 | – | 24.6 µM | – | 32.1 µM | – | – | – | 39.7 µM | – | 34.6 µM | – | 50.7 µM | – | 35.2 µM | – | 51.3 µM | – | 54.4 µM | – | 37 µM
13 | O=C(c1ccco1)c1ccccc1C(=O)c1ccco1 | – | > 100 µM | – | > 100 µM | – | – | – | > 100 µM | – | > 100 µM | – | > 100 µM | – | > 100 µM | – | > 100 µM | – | > 100 µM | – | > 100 µM
